The values that follow come from PubChem BioAssay (NCI).

Where “and” joins values, the source holds several entries; their conditions need not be identical. Equal values may be shown once.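 These data come from cells grown in 96-well plates and exposed to compound for 48 hours at five concentrations. GI50 marks 50% less growth. TGI: concentration producing complete growth inhibition.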

What all share (test): NCI tumour cell line growth inhibition, 48 h
The test system of experiment [1] is SNB-75 CNS.
The subject of experiment [2] is 786-0 renal.
The subject of experiment [3] is NCI-H226 lung.
Experiment [4] has as its system NCI-H522 lung.
Experiment [5] relates to T-47D breast.
The subject of experiment [6] is CAKI-1 renal.
In experiment [7] the test system is OVCAR-3 ovarian.
Experiment [8] has as its system NCI-H460 lung.
Experiment [9] relates to KM12 colon.
For experiment [10], the system named is UO-31 renal.

Turning to `NS(=O)(=O)c1ccc(N=Nc2c[nH]c(=O)c(O)c2)cc1`, the TGI is above 100 µM in experiment [1]; above 100 µM in experiment [2]; above 100 µM in experiment [3]; 28.6 µM in [4]; above 100 µM in experiment [5]; above 100 µM in experiment [6]. In addition, the TGI is 82.6 µM in [7], above 100 µM in [8], above 100 µM in [9] and above 100 µM in [10].
For the molecule `Cn1c(I)c(C#C[Si](C)(C)C)c(=O)[nH]c1=O`, the GI50 was 15.2 µM in experiment [1]; 16.4 µM in experiment [2]; 12.7 µM in [3]; 1.68 µM in experiment [4]; 2.54 µM in experiment [5]; 2.76 µM in experiment [6]. Besides, the GI50 in [7] was 1.9 µM; in [8] it was 19.7 µM; in [9], 16.8 µM; in [10] it was 16.8 µM. Further, the TGI in experiment [1] stood at 29.3 µM; in [2], 30.4 µM; in experiment [3] it was 25.3 µM; in experiment [4], 3.18 µM; in [5], 8 µM; in [6] it was 9.58 µM. Further, the TGI stood at 3.39 µM in experiment [7], 41.3 µM in experiment [8], 32.4 µM in [9] and 32.4 µM in experiment [10].
For the molecule `COC(=O)c1cc(-c2ccc(S(C)(=O)=O)cc2)[nH]c1N/N=C/c1c(Cl)cccc1Cl`, the GI50 in experiment [1] is 0.298 µM; in [2] it was 0.747 µM; in experiment [3] it was 1.02 µM; in experiment [4] it was 0.988 µM; in experiment [5] it was 0.374 µM; in [6], 0.377 µM. Further, the GI50 in experiment [7] was 0.273 µM; in experiment [8] it was 0.367 µM; in experiment [9] it was 0.386 µM; in [10], 0.49 µM. Further, the TGI is 1.93 µM in experiment [1]; above 32.2 µM in experiment [2]; above 22.9 µM in experiment [3]; above 35.7 µM in experiment [5]; 13.9 µM in [6]; 0.704 µM in experiment [7]. Moreover, the TGI in [8] amounted to 10.3 µM; in experiment [9], 10 µM; in experiment [10] it was 37.5 µM.
With `CSc1nc(SC)c2c(C)cn(COCCOC(=O)c3ccccc3)c2n1`, the TGI in [1] was above 100 µM; in experiment [2] it was above 100 µM; in experiment [3] it was above 100 µM; in experiment [4], above 100 µM; in experiment [5], 94.5 µM; in experiment [6], above 100 µM. Moreover, the TGI in [7], in experiment [8], in experiment [9] and in experiment [10] was above 100 µM throughout.
Consider `CCN1C(=O)N(CC)C2C1N=C(SC)N2/N=C/C=C/c1ccccc1OC` (stereo not drawn), for which the GI50 in experiment [1] was 0.363 µM; in experiment [2] it was 0.538 µM; in [3] it was 2.14 µM; in experiment [4], 0.308 µM; in experiment [5] it was above 32.8 µM; in experiment [6] it was 0.572 µM. Further, the GI50 in [7] is 0.375 µM; in [8] it was 0.341 µM; in experiment [9] it was 0.404 µM; in experiment [10] it was 0.821 µM. Further, the TGI was 52.5 µM in experiment [1]; 31.7 µM in experiment [2]; above 52.3 µM in experiment [3]; above 58.8 µM in experiment [5]; above 58.3 µM in experiment [6]; above 54.2 µM in experiment [7]. For the same molecule, the figures for the TGI in experiment [8], in experiment [9] and in experiment [10] were above 34.3 µM, above 39.6 µM and above 47.3 µM, respectively.
Consider `C[C@]12CCC(=O)C[C@@H]1CC[C@@H]1[C@@H]2CC[C@]2(C)[C@@H](OC(=O)N(CCCl)N=O)CC[C@@H]12`, for which the GI50 in experiment [1] is 0.507 µM; in experiment [2] it was 0.118 µM; in experiment [3], 11.9 µM; in [4], 2.48 µM; in experiment [5], 2.91 µM; in [6], 0.591 µM. Also, the GI50 is 3.53 µM in experiment [7], 0.06 µM in experiment [8], 1.49 µM in experiment [9] and 1.11 µM in experiment [10]. In addition, the TGI in experiment [1] is 13.3 µM; in [2], 3.66 µM; in experiment [3], 30.4 µM; in experiment [4] it was 20.4 µM; in [5], 30 µM; in experiment [6], 12 µM. Besides, the TGI was determined as 15.9 µM in experiment [7], 2.99 µM in [8], 6.41 µM in experiment [9] and 10.5 µM in [10].
Turning to `CNC(=O)c1cc(Oc2ccc(NC(=O)Nc3cc(C(C)(C)C)nn3-c3ccc4ncccc4c3)c(F)c2)ccn1`, the GI50 in experiment [1] is 1.09 µM and 1.01 µM; in experiment [2], 2.69 µM and 3.08 µM; in experiment [3], 0.272 µM and 0.822 µM; in [4], 1.78 µM and 2.2 µM; in experiment [5], 0.907 µM and 1.79 µM; in [6], 0.523 µM and 0.699 µM. Moreover, the GI50 in experiment [7] was 2.36 µM and 2.21 µM; in experiment [8], 2.06 µM and 2.04 µM; in experiment [9], 0.0422 µM and 0.0433 µM; in experiment [10], 1.62 µM and 1.78 µM. Moreover, the TGI is 2.7 µM and 3.01 µM in experiment [1]; 8.13 µM and 8.95 µM in [2]; 7.24 µM and 4.26 µM in experiment [3]; 4.91 µM and 5.31 µM in [4]; 7.17 µM and > 29.3 µM in experiment [5]; 4.65 µM and 4.32 µM in experiment [6]. For the same molecule, the TGI in experiment [7] was 7.96 µM and 6.35 µM; in [8] it was 8.11 µM and 6.93 µM; in experiment [9], 5.19 µM and 5.41 µM; in experiment [10] it was 7.7 µM and 6.39 µM.
